Measurements published in ChEMBL document CHEMBL4507305, “Data for DCP probe TP-024” (2021).

Legend:
[1] = biological target: Misshapen-like kinase 1 (Homo sapiens) (UniProt Q8N4C8); details: Compound concentration 1000.0 nM
[2] = biological target: RAC-beta serine/threonine-protein kinase (Homo sapiens) (UniProt P31751); details: Compound concentration 1000.0 nM
[3] = biological target: Aurora kinase A (Homo sapiens) (UniProt O14965); details: Compound concentration 1000.0 nM
[4] = biological target: Cyclin-G-associated kinase (Homo sapiens) (UniProt O14976); details: Compound concentration 1000.0 nM
[5] = biological target: Ephrin type-A receptor 4 (Homo sapiens) (UniProt P54764); details: Compound concentration 1000.0 nM
[6] = biological target: Mast/stem cell growth factor receptor Kit (Homo sapiens) (UniProt P10721); details: Compound concentration 1000.0 nM
[7] = biological target: Citron Rho-interacting kinase (Homo sapiens) (UniProt O14578); details: Compound concentration 1000.0 nM
[8] = biological target: Tyrosine-protein kinase receptor TYRO3 (Homo sapiens) (UniProt Q06418); details: Compound concentration 1000.0 nM
[9] = biological target: Serine/threonine-protein kinase PAK 1 (Homo sapiens) (UniProt Q13153); details: Compound concentration 1000.0 nM
[10] = biological target: D(3) dopamine receptor (Homo sapiens) (UniProt P35462); details: Compound concentration 10.0 uM
[11] = biological target: Casein kinase I isoform alpha (Homo sapiens) (UniProt P48729); details: Compound concentration 1000.0 nM
[12] = biological target: 5-hydroxytryptamine receptor 1B (Homo sapiens) (UniProt P28222); details: Compound concentration 10.0 uM
[13] = system: Tyrosine-protein kinase ABL1 (Homo sapiens), P00519 [H396P]; details: Compound concentration 1000.0 nM
[14] = system: Phosphatidylinositol 4,5-bisphosphate 3-kinase catalytic subunit alpha isoform (Homo sapiens), P42336 [M1043I]; details: Compound concentration 1000.0 nM
[15] = system: Epidermal growth factor receptor (Homo sapiens), P00533 [G719C]; details: Compound concentration 1000.0 nM
[16] = biological target: 5-hydroxytryptamine receptor 2B (Homo sapiens) (UniProt P41595); details: Compound concentration 10.0 uM
[17] = biological target: Proto-oncogene tyrosine-protein kinase receptor Ret (Homo sapiens) (UniProt P07949); details: Compound concentration 1000.0 nM
[18] = biological target: D(1A) dopamine receptor (Homo sapiens) (UniProt P21728); details: Compound concentration 10.0 uM
[19] = biological target: 5-hydroxytryptamine receptor 1E (Homo sapiens) (UniProt P28566); details: Compound concentration 10.0 uM
[20] = system: Tyrosine-protein kinase ABL1 (Homo sapiens), P00519 [T315I]; details: Compound concentration 1000.0 nM
[21] = biological target: Leukocyte tyrosine kinase receptor (Homo sapiens) (UniProt P29376); details: Compound concentration 1000.0 nM
[22] = biological target: Mitogen-activated protein kinase kinase kinase 10 (Homo sapiens) (UniProt Q02779); details: Compound concentration 1000.0 nM
[23] = biological target: Proto-oncogene tyrosine-protein kinase ROS (Homo sapiens) (UniProt P08922); details: Compound concentration 1000.0 nM
[24] = biological target: Angiopoietin-1 receptor (Homo sapiens) (UniProt Q02763); details: Compound concentration 1000.0 nM
[25] = biological target: Protein kinase C delta type (Homo sapiens) (UniProt Q05655); details: Compound concentration 1000.0 nM
[26] = biological target: Phosphatidylinositol 4-kinase beta (Homo sapiens) (UniProt Q9UBF8); details: Compound concentration 1000.0 nM
[27] = biological target: Interleukin-1 receptor-associated kinase 4 (Homo sapiens) (UniProt Q9NWZ3); details: Compound concentration 1000.0 nM
[28] = biological target: Beta-2 adrenergic receptor (Homo sapiens) (UniProt P07550); details: Compound concentration 10.0 uM
[29] = biological target: Calcium/calmodulin-dependent protein kinase type II subunit gamma (Homo sapiens) (UniProt Q13555); details: Compound concentration 1000.0 nM
[30] = biological target: MAP kinase-activated protein kinase 2 (Homo sapiens) (UniProt P49137); details: Compound concentration 1000.0 nM
[31] = biological target: Cyclin-dependent kinase 14 (Homo sapiens) (UniProt O94921); details: Compound concentration 1000.0 nM
[32] = biological target: Ankyrin repeat and protein kinase domain-containing protein 1 (Homo sapiens) (UniProt Q8NFD2); details: Compound concentration 1000.0 nM
[33] = system: Phosphatidylinositol 4,5-bisphosphate 3-kinase catalytic subunit alpha isoform (Homo sapiens), P42336 [E545A]; details: Compound concentration 1000.0 nM
[34] = biological target: Sigma non-opioid intracellular receptor 1 (Homo sapiens) (UniProt Q99720); details: Compound concentration 10.0 uM
[35] = biological target: Ephrin type-B receptor 1 (Homo sapiens) (UniProt P54762); details: Compound concentration 1000.0 nM
[36] = biological target: Fibroblast growth factor receptor 4 (Homo sapiens) (UniProt P22455); details: Compound concentration 1000.0 nM
[37] = biological target: 3-phosphoinositide-dependent protein kinase 1 (Homo sapiens) (UniProt O15530); details: Compound concentration 1000.0 nM
[38] = biological target: Mitogen-activated protein kinase 1 (Homo sapiens) (UniProt P28482); details: Compound concentration 1000.0 nM
[39] = biological target: Mitogen-activated protein kinase kinase kinase 13 (Homo sapiens) (UniProt O43283); details: Compound concentration 1000.0 nM
[40] = system: Epidermal growth factor receptor (Homo sapiens), P00533 [UNDEFINED MUTATION]; details: Compound concentration 1000.0 nM
[41] = system: Mast/stem cell growth factor receptor Kit (Homo sapiens), P10721 [V559D,V654A]; details: Compound concentration 1000.0 nM
[42] = biological target: 5-hydroxytryptamine receptor 6 (Homo sapiens) (UniProt P50406); details: Compound concentration 10.0 uM
[43] = biological target: Serine/threonine-protein kinase D1 (Homo sapiens) (UniProt Q15139); details: Compound concentration 1000.0 nM
[44] = biological target: cAMP-dependent protein kinase catalytic subunit PRKX (Homo sapiens) (UniProt P51817); details: Compound concentration 1000.0 nM
[45] = biological target: Serine/threonine-protein kinase Nek5 (Homo sapiens) (UniProt Q6P3R8); details: Compound concentration 1000.0 nM
Sequence of Serine/threonine-protein kinase Nek5 (Homo sapiens) (Q6P3R8 whole entry): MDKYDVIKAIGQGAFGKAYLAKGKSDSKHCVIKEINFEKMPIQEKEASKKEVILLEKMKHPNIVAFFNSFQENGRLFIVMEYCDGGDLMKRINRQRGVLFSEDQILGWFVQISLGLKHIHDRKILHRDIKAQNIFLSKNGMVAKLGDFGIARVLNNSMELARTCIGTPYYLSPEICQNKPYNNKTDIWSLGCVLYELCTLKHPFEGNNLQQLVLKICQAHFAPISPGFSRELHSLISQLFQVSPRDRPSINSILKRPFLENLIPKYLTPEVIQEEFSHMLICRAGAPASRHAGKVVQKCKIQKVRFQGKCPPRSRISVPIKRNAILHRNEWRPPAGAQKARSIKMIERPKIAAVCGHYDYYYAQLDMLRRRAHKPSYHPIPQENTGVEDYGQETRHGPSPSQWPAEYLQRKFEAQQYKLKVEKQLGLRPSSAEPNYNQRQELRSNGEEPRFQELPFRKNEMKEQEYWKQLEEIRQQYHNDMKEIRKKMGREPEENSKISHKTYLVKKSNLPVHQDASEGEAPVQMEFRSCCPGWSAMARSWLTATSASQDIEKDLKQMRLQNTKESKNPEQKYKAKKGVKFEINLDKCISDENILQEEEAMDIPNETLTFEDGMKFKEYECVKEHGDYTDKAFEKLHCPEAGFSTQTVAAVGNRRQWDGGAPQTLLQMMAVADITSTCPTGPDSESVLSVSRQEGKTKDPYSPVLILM

Sequence of Cyclin-dependent kinase 14 (Homo sapiens) (O94921 whole entry, the tested form may be a part): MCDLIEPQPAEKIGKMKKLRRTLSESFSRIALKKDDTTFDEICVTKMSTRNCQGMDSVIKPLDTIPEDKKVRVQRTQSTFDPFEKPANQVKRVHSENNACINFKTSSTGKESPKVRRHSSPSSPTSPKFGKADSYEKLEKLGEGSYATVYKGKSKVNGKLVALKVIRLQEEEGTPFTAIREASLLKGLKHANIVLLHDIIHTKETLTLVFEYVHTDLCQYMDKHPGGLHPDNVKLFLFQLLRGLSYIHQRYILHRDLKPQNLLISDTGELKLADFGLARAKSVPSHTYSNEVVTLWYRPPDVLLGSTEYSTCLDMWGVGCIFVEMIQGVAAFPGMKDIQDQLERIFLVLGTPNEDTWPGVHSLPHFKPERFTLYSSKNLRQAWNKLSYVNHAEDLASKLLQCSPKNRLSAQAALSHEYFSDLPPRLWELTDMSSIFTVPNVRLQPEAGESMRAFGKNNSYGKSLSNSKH
Sequence of Calcium/calmodulin-dependent protein kinase type II subunit gamma (Homo sapiens) (Q13555 whole entry): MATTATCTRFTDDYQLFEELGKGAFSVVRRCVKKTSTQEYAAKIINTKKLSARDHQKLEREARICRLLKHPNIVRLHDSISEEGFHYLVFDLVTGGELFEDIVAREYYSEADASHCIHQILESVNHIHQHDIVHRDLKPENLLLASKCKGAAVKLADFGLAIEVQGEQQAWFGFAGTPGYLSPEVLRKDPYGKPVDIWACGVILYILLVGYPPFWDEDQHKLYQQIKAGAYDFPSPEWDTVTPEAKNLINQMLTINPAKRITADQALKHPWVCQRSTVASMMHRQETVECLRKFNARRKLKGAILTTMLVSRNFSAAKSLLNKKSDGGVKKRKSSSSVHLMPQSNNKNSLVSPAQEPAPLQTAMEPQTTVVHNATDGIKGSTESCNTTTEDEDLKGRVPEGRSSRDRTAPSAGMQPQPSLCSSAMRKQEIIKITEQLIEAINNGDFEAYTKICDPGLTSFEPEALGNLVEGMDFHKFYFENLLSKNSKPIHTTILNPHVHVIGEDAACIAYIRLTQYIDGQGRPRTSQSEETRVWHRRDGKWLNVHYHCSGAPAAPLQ
Sequence of Phosphatidylinositol 4,5-bisphosphate 3-kinase catalytic subunit alpha isoform (Homo sapiens), P42336 [M1043I] (P42336 whole entry M1043I, canonical isoform): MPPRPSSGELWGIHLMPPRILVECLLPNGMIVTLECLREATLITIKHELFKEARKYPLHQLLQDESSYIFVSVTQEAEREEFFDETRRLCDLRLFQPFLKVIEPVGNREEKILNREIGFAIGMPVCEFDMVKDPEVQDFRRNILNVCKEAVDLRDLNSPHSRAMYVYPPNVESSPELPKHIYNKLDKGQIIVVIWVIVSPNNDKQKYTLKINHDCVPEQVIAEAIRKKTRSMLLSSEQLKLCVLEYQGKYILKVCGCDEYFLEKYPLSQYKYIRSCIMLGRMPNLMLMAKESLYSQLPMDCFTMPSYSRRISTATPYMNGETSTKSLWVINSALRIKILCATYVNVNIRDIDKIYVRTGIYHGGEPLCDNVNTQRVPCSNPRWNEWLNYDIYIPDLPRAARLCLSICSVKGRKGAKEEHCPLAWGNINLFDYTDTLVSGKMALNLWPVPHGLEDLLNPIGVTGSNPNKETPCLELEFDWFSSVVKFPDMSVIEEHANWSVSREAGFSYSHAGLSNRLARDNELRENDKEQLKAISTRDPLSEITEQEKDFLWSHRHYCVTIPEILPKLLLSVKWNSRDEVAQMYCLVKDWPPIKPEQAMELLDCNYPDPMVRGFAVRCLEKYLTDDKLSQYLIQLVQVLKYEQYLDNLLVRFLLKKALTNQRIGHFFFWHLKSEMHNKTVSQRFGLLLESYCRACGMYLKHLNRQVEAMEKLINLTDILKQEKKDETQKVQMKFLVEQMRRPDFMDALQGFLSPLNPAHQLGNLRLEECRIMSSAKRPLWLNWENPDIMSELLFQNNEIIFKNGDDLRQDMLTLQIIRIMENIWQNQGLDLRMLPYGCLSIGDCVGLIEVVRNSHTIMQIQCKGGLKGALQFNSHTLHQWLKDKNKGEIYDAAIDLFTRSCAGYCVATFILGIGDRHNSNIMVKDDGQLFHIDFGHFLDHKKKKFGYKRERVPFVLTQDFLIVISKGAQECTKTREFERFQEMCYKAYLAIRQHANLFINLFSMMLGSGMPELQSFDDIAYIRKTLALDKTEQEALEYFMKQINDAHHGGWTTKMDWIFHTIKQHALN
Sequence of Ankyrin repeat and protein kinase domain-containing protein 1 (Homo sapiens) (Q8NFD2 whole entry, the tested form may be a part, canonical isoform): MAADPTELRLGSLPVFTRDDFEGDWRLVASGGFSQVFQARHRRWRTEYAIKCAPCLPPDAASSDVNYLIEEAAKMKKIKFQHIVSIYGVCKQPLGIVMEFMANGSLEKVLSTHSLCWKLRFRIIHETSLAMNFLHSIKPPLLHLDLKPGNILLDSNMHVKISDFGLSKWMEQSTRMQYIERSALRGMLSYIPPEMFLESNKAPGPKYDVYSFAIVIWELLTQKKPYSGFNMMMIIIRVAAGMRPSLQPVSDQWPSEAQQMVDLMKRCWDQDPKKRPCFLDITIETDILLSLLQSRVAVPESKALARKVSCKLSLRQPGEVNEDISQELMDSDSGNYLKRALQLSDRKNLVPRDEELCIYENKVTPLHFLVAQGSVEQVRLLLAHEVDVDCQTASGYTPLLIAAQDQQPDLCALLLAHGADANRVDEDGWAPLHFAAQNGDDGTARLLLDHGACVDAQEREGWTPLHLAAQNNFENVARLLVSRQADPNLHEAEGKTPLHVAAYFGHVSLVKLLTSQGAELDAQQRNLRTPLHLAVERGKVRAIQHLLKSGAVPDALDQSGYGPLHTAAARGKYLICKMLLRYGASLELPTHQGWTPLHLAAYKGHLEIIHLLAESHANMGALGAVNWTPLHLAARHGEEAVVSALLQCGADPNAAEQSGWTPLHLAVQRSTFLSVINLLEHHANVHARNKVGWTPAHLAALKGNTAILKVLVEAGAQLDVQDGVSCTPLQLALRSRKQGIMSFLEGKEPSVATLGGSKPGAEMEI
Sequence of Ephrin type-B receptor 1 (Homo sapiens) (P54762 whole entry): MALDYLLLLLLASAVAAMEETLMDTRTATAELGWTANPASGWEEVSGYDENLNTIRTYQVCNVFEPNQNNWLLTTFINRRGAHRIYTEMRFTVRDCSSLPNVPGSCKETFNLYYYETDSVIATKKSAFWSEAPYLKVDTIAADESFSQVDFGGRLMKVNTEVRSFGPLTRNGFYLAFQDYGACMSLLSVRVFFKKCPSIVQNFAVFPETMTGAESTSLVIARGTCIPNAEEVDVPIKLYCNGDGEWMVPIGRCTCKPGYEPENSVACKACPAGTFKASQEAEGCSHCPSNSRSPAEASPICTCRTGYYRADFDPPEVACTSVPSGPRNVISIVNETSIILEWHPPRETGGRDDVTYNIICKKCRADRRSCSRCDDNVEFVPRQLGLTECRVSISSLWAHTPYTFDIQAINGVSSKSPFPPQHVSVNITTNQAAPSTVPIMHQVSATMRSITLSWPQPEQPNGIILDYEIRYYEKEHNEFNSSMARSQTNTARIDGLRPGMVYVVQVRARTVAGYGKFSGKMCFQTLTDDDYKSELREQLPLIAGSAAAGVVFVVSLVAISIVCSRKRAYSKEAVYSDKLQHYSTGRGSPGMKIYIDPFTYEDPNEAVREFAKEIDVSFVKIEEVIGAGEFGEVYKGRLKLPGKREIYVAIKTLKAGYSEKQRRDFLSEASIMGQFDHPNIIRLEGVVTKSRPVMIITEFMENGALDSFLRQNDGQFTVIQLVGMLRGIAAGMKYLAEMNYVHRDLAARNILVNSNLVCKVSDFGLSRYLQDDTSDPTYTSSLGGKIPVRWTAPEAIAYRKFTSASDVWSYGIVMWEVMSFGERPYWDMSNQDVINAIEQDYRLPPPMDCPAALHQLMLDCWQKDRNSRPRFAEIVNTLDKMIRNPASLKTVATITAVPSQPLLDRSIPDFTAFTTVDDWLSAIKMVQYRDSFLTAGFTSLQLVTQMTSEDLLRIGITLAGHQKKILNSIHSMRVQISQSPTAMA
Sequence of 5-hydroxytryptamine receptor 6 (Homo sapiens) (P50406 whole entry): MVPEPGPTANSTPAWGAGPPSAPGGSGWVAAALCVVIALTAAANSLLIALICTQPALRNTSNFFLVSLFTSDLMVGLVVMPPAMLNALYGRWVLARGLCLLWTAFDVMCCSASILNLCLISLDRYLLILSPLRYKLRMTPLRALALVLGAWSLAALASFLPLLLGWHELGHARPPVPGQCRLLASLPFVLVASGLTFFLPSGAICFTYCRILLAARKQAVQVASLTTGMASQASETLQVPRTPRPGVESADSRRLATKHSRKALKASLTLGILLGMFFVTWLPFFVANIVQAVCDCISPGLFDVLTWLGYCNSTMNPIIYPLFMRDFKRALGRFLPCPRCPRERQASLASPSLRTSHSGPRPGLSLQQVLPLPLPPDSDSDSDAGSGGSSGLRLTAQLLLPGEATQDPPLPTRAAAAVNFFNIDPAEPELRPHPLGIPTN

## Cc1cc(-n2nc(Cc3cc(F)cc(C(F)(F)F)c3)nc2C)ccc1C(N)=O [TP-024]
[1]
  residual activity: 93%
[2]
  residual activity: 100%
[3]
  residual activity: 99%
[4]
  residual activity: 100%
[5]
  residual activity: 96%
[6]
  residual activity: 100%
[7]
  residual activity: 95%
[8]
  residual activity: 100%
[9]
  residual activity: 95%
[10]
  inhibition: 3.4%
[11]
  residual activity: 100%
[12]
  inhibition: 13.8%
[13]
  residual activity: 97%
[14]
  residual activity: 95%
[15]
  residual activity: 100%
[16]
  inhibition: -2.51%
[17]
  residual activity: 96%
[18]
  inhibition: -4.72%
[19]
  inhibition: 10.5%
[20]
  residual activity: 100%
[21]
  residual activity: 100%
[22]
  residual activity: 95%
[23]
  residual activity: 87%
[24]
  residual activity: 92%
[25]
  residual activity: 88%
[26]
  residual activity: 100%
[27]
  residual activity: 100%
[28]
  inhibition: -1.39%
[29]
  residual activity: 100%
[30]
  residual activity: 100%
[31]
  residual activity: 100%
[32]
  residual activity: 100%
[33]
  residual activity: 100%
[34]
  inhibition: 5.85%
[35]
  residual activity: 97%
[36]
  residual activity: 100%
[37]
  residual activity: 100%
[38]
  residual activity: 100%
[39]
  residual activity: 100%
[40]
  residual activity: 83%
[41]
  residual activity: 97%
[42]
  inhibition: 6.25%
[43]
  residual activity: 92%
[44]
  residual activity: 100%
[45]
  residual activity: 77%

## Cc1nc(Cc2cccc(C(F)(F)F)c2)sc1-c1ccc(C(N)=O)nc1 [TP-024n]
[1]
  residual activity: 92%
[2]
  residual activity: 81%
[3]
  residual activity: 100%
[4]
  residual activity: 91%
[5]
  residual activity: 100%
[6]
  residual activity: 100%
[7]
  residual activity: 65%
[8]
  residual activity: 99%
[9]
  residual activity: 84%
[10]
  inhibition: 6.21%
[11]
  residual activity: 99%
[12]
  inhibition: 7.99%
[13]
  residual activity: 87%
[14]
  residual activity: 15%
[15]
  residual activity: 94%
[16]
  inhibition: 33.7%
[17]
  residual activity: 100%
[18]
  inhibition: -6.03%
[19]
  inhibition: 9.13%
[20]
  residual activity: 100%
[21]
  residual activity: 100%
[22]
  residual activity: 71%
[23]
  residual activity: 94%
[24]
  residual activity: 80%
[25]
  residual activity: 79%
[26]
  residual activity: 91%
[27]
  residual activity: 100%
[28]
  inhibition: 2.07%
[29]
  residual activity: 93%
[30]
  residual activity: 100%
[31]
  residual activity: 100%
[32]
  residual activity: 95%
[33]
  residual activity: 100%
[34]
  inhibition: 11.7%
[35]
  residual activity: 100%
[36]
  residual activity: 100%
[37]
  residual activity: 82%
[38]
  residual activity: 95%
[39]
  residual activity: 100%
[40]
  residual activity: 83%
[41]
  residual activity: 83%
[42]
  inhibition: 2.42%
[43]
  residual activity: 93%
[44]
  residual activity: 100%
[45]
  residual activity: 35%
